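Five compound concentrations were applied to cells in 96-well plates for 48 hours; endpoints were derived by simple linear interpolation of the resulting dose-response curve. GI50 is the concentration that inhibits growth by half. TGI denotes the concentration required for complete inhibition of growth.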
Columns and labels:
Experiment in all cases: DTP human tumour cell line panel, 48 h
786-0 renal = test system: 786-0 renal
BT-549 breast = test system: BT-549 breast
CAKI-1 renal = test system: CAKI-1 renal
MDA-MB-231 breast = test system: MDA-MB-231 breast
NCI-H226 lung = test system: NCI-H226 lung
NCI/ADR-RES ovarian = test system: NCI/ADR-RES ovarian
T-47D breast = test system: T-47D breast
LOX IMVI melanoma = test system: LOX IMVI melanoma
DLD-1 colon = test system: DLD-1 colon
M19-MEL melanoma = test system: M19-MEL melanoma

Row | SMILES | TGI (786-0 renal) [µM] | TGI (BT-549 breast) [µM] | TGI (CAKI-1 renal) [µM] | TGI (MDA-MB-231 breast) [µM] | TGI (NCI-H226 lung) [µM] | TGI (NCI/ADR-RES ovarian) [µM] | TGI (T-47D breast) [µM] | TGI (LOX IMVI melanoma) [µM] | further results
1 | Nc1nc(N)c2ncn(-c3ccc(Cl)c(Cl)c3)c2n1 | 27.5 | 72.6 | > 100 | 77.7 | > 100 | > 100 | > 100 |  | 
2 | C=C1C(=O)OC2/C=C(\C)C(=O)CC3OC(C)(C)OC3(C)CC(OC(=O)/C(C)=C/C)C12 (centres undefined) | > 47.9 | 26.8 | 10.3 | 58 | 63.6 |  | > 64.6 | 27.3 | 
3 | C=C(C)[C@@H]1CC[C@]2(C(=O)Nc3ccccn3)CC[C@]3(C)[C@H](CC[C@@H]4[C@@]5(C)CCCNC(C)(C)[C@@H]5CC[C@]43C)[C@@H]12 |  |  | 2.93 |  | 33.4 | 4.14 |  |  | GI50 (CAKI-1 renal): 1.55 µM; GI50 (NCI-H226 lung): 5.31 µM; GI50 (NCI/ADR-RES ovarian): 1.93 µM
4 | O=S(=O)(O)c1cc(N=Nc2cc(S(=O)(=O)O)c3ccccc3c2O)ccc1/C=C/c1ccc(N=Nc2cc(S(=O)(=O)O)c3ccccc3c2O)cc1S(=O)(=O)O | > 1000 | 552 | > 756 | 82.1 | 594 | > 1000 | > 1000 | > 461 | GI50 (DLD-1 colon): > 1000 µM; TGI (DLD-1 colon): > 1000 µM; GI50 (M19-MEL melanoma): > 1000 µM; TGI (M19-MEL melanoma): > 1000 µM
5 | c1ccc(-n2cnnc2-c2nsc3ccccc23)cc1 |  |  |  |  |  |  |  | > 100 | TGI (M19-MEL melanoma): > 100 µM
6 | C=C1CC23CCC4C(C)(C(=O)O)CCCC4(C)C2CCC1C3 (centres undefined) | > 100 | > 100 | > 100 | > 100 | > 100 |  | > 100 | > 100 | 
7 | O=[N+]([O-])c1ccc(/C=N\Nc2ccc([N+](=O)[O-])cn2)cc1 | > 100 | > 100 |  | > 100 | > 100 | > 100 | > 100 |  | 
8 | CCN(CC)C(=S)SC(=S)N(CC)CC | 56.3 | 77.4 | 99.7 | > 92.1 | > 100 | > 100 | > 100 | 58.9 | 
9 | N=C(N)c1ccc(-c2ccc(-c3cncc4ccccc34)s2)cc1F |  |  | 2.91 | 3.12 |  |  |  |  | GI50 (CAKI-1 renal): 1.52 µM; GI50 (MDA-MB-231 breast): 1.4 µM
10 | O=C(/C=c1\oc(=O)/c(=C/C(=O)c2ccc(Cl)cc2)oc1=O)c1ccc(Cl)cc1 | > 100 | 91 | > 100 | > 100 | > 100 | > 100 | > 100 | > 100 | 
11 | CC(C)=CCc1c(O)ccc2c1OC1c3ccc(O)c(CC=C(C)C)c3OCC21 (centres undefined) |  |  | 25 |  | 30.7 | 32.2 |  | 22.3 | TGI (DLD-1 colon): 18.9 µM; TGI (M19-MEL melanoma): 24.2 µM
12 | C=C(C)C(=O)OC1C(C(C)CCCO)=C(CO)CC2OC(=O)C(=C)C21 (centres undefined) | 25.9 | 34.7 | 31.3 | 36 | > 100 | > 100 | 45.5 | 24.5 | 
13 | COc1cc(C(C)(C)C)cc(OC)c1C(O)(c1c(OC)cc(C(C)(C)C)cc1OC)c1c(OC)cc(C(C)(C)C)cc1OC |  |  |  |  |  |  |  | 1.45 | GI50 (LOX IMVI melanoma): 0.357 µM
14 | C=C(C)C1CC2=C(O1)C(=O)c1ccccc1C2=O (centres undefined) |  |  | 31.7 |  |  |  |  | > 100 | TGI (DLD-1 colon): 52.1 µM
15 | COc1ccc2c(c1)CCC(CN1CCN(CCOC(c3ccc(F)cc3)c3ccc(F)cc3)CC1)C2O (centres undefined) | 25.2 | 27.5 | 32 | 27.4 | 39.8 | 25.4 | 39 | 29.8 | 
16 | C/C1=N\NC(=O)c2ccccc2C(=O)N/N=C(\C)c2cccc1n2.O=[N+]([O-])[O-].[Zn+2] | > 100 |  | > 100 |  |  |  |  |  | TGI (DLD-1 colon): > 100 µM
17 | CCN=C=NCCCN(C)C | > 100 | > 100 | > 100 | > 100 | > 100 | > 100 |  | > 100 | 
18 | COc1ccc2[nH]c3c([N+](=O)[O-])ccc(Cl)c3c(=O)c2c1 | 33.7 | 32.1 | 49.5 | 32.8 | > 100 | > 71.2 | > 84.7 | 34.5 | 
19 | Nc1ccc(OCC(O)N2C(=O)c3ccccc3C2=O)cc1 (centres undefined) |  |  |  | > 100 |  | > 100 | > 100 | > 100 | 
20 | CC(C)(C)C1(c2ccc(C3(c4ccccc4)Oc4ccccc4S3)[nH]2)Oc2ccccc2S1 (centres undefined) |  |  | > 100 |  | > 100 |  |  | > 100 | TGI (DLD-1 colon): > 100 µM; TGI (M19-MEL melanoma): > 100 µM
21 | Nc1cc(S(=O)(=O)O)cc2cc(S(=O)(=O)O)c(N=Nc3ccc(-c4ccc(N=Nc5c(S(=O)(=O)O)cc6cc(S(=O)(=O)O)cc(N)c6c5O)cc4)cc3)c(O)c12 |  |  |  |  | > 100 | > 100 |  | > 100 | TGI (DLD-1 colon): > 100 µM; TGI (M19-MEL melanoma): > 100 µM
22 | COC1/C=C\OC2(C)Oc3c(C)c(O)c4c(O)c(c(/C=N\OCCCc5ccccc5)c(O)c4c3C2=O)NC(=O)/C(C)=C\C=C/C(C)C(O)C(C)C(O)C(C)C(OC(C)=O)C1C (centres undefined) | 9.81 |  | 15.2 | 7.97 | 7.09 | 13.4 | 15.6 | 10.2 | 
23 | Cc1ccc(P(c2ccc(C)cc2)c2ccc(C)cc2)cc1 |  | > 100 | 98.5 | 67.6 |  | > 100 | > 100 | 30.4 | 
24 | C=C(CN(C)C)C(=O)c1ccc(C)cc1C | 12.5 | 12.7 | 8.39 | 52.1 | 34.5 | 40.3 | 18.6 | 15.2 | TGI (DLD-1 colon): 14.2 µM; TGI (M19-MEL melanoma): 43.1 µM
25 | O=Nc1ccc(O)c2ncccc12 | 14.7 | 23 | 31.1 | 57.3 | 42.8 | 18.3 | 33.1 | 18.6 | TGI (DLD-1 colon): 25.3 µM; TGI (M19-MEL melanoma): 16.4 µM
26 | C=C1C(=O)CCC1C(=O)O (centres undefined) | > 100 | > 100 |  | > 100 | > 100 | > 100 | > 100 | > 100 | 
27 | C[C@H](C(=O)N[C@@H](Cc1ccc(-c2ccccc2)cc1)C(=O)NC1CC(C)(C)N(C)C(C)(C)C1)c1ccc(-c2ccccc2)c(F)c1 |  | 3.25 |  | 3.02 |  | 4.19 |  |  | GI50 (BT-549 breast): 1.62 µM; GI50 (MDA-MB-231 breast): 1.49 µM; GI50 (NCI/ADR-RES ovarian): 1.77 µM
28 | COc1ccc(-c2nn(-c3ccc(NC(=O)Nc4ccc(Cl)c(Cl)c4)cc3)cc2-c2ccncc2)cc1Cl |  |  | 15.4 | 4.33 | > 100 | > 100 | > 100 | 10.4 | GI50 (CAKI-1 renal): 1.95 µM; GI50 (LOX IMVI melanoma): 2.24 µM; GI50 (MDA-MB-231 breast): 1.5 µM; GI50 (NCI-H226 lung): 3.49 µM; GI50 (NCI/ADR-RES ovarian): 2.06 µM; GI50 (T-47D breast): 3.24 µM
